In the experiment the target is T1, BRD4 bromodomains (Homo sapiens, UniProt O60885).
T1 construct: fused on or other part: T7 phage capsid protein (phage-display fusion; the phage DNA is read out by qPCR)
In words: BROMOscan bromodomain competition binding assay (DiscoveRx). Conditions: Kd from 11 compound concentrations ranging from 0 to 10 μM, read-out: BROMOscan Relative Activity. The essentials:
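Compounds in 0.1% DMSO/0.9% MEG competed with a solid-phase acetylated peptide for T7 phage-fused BRD4 bromodomains, with the retained bromodomain measured by qPCR.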

As to `Cc1cc(NC(=O)c2nc(NCc3cccc(Cl)c3)c3cc(-c4c(C)noc4C)ccc3n2)ccn1` [Example 218, 4-((3-chlorobenzyl)amino)-6-(3,5-dimethylisoxazol-4-yl)-N-(2-methylpyridin-4-yl)quinazoline-2-carboxamide], the Kd was 500 to 5000 nM.
For `Cc1noc(C)c1-c1ccc2nc(C(=O)NC3CN(C)C3)cc(NCc3cccc(Cl)c3)c2c1` [Example 234, 4-((3-chlorobenzyl)amino)-6-(3,5-dimethylisoxazol-4-yl)-N-(1-methylazetidin-3-yl)quinoline-2-carboxamide], the Kd is below 500 nM.
In the case of `Cc1noc(C)c1-c1ccc2nc(N3CCC4(CCC(=O)N4)CC3)nc(N3CCOC[C@@H]3c3ccccc3)c2c1` [Example 314, (S)-8-(6-(3,5-dimethylisoxazol-4-yl)-4-(3-phenylmorpholino)quinazolin-2-yl)-1,8-diazaspiro[4.5]decan-2-one], the Kd is below 500 nM.
In the case of `Cc1noc(C)c1-c1ccc2nc(-c3cnn(CC(N)=O)c3)nc(NCc3cncc(Cl)c3)c2c1` [Example 142, 2-(4-(4-(((5-chloropyridin-3-yl)methyl)amino)-6-(3,5-dimethylisoxazol-4-yl)quinazolin-2-yl)-1H-pyrazol-1-yl)acetamide] it was below 500 nM; in that of `Cc1noc(C)c1-c1ccc2nc(-c3cnn(CC(C)(C)O)c3)nc(N3CCNC[C@@H]3c3ccccc3)c2c1` [Example 291, (S)-1-(4-(6-(3,5-dimethylisoxazol-4-yl)-4-(2-phenylpiperazin-1-yl)quinazolin-2-yl)-1H-pyrazol-1-yl)-2-methylpropan-2-ol], below 500 nM; in that of `Cc1ncsc1CNC(=O)c1nc(NCc2cccc(Cl)c2)c2cc(-c3c(C)noc3C)ccc2n1` [Example 258, 4-((3-chlorobenzyl)amino)-6-(3,5-dimethylisoxazol-4-yl)-N-((4-methylthiazol-5-yl)methyl)quinazoline-2-carboxamide], below 500 nM.
In the case of `CN(C)CCCN1CCN(c2nc(NCc3cccc(Cl)c3)c3cc(-c4ccc(=O)n(C)c4)ccc3n2)CC1` [Example 123, 5-(4-((3-chlorobenzyl)amino)-2-(4-(3-(dimethylamino)propyl)piperazin-1-yl)quinazolin-6-yl)-1-methylpyridin-2(1H)-one] it was below 500 nM; in that of `Cc1noc(C)c1-c1ccc2c(NCc3cccc(Cl)c3)nc(N3CCN(CCN(C)C)CC3)nc2c1` [Example 39, N-(3-chlorobenzyl)-2-(4-(2-(dimethylamino)ethyl)piperazin-1-yl)-7-(3,5-dimethylisoxazol-4-yl)quinazolin-4-amine], 500 to 5000 nM; in that of `Cc1ccc(CNc2nc(N3CCN(CCN(C)C)CC3)nc3ccc(-c4c(C)noc4C)cc23)s1` [Example 88, 2-(4-(2-(dimethylamino)ethyl)piperazin-1-yl)-6-(3,5-dimethylisoxazol-4-yl)-N-((5-methylthiophen-2-yl)methyl)quinazolin-4-amine], below 500 nM.
In the case of `Cc1noc(C)c1-c1ccc2nc(N3CCc4c(ncn4C)C3)nc(N3CCOC[C@@H]3c3ccccc3)c2c1` [Example 328, (S)-4-(6-(3,5-dimethylisoxazol-4-yl)-2-(1-methyl-1,4,6,7-tetrahydro-5H-imidazo[4,5-c]pyridin-5-yl)quinazolin-4-yl)-3-phenylmorpholine] it was below 500 nM.
In the case of `Cc1noc(C)c1-c1ccc2nc(N3CCN(CCN(C)C)CC3)nc(NCCc3ccc(Cl)cc3)c2c1` [Example 160, N-(4-chlorophenethyl)-2-(4-(2-(dimethylamino)ethyl)piperazin-1-yl)-6-(3,5-dimethylisoxazol-4-yl)quinazolin-4-amine], the Kd was in the range of 500 to 5000 nM.
In the case of `Cc1noc(C)c1-c1ccc2nc(-c3cnn(CC(=O)N(C)C)c3)nc(NCc3cncc(Cl)c3)c2c1` [Example 140, 2-(4-(4-(((5-chloropyridin-3-yl)methyl)amino)-6-(3,5-dimethylisoxazol-4-yl)quinazolin-2-yl)-1H-pyrazol-1-yl)-N,N-dimethylacetamide] it was below 500 nM.
As to `Cc1noc(C)c1-c1ccc2nc(N3CCN(CCN(C)C)CC3)nc(N3CCCCC3c3ccccc3)c2c1` (stereo not shown) [Example 175, 2-(4-(6-(3,5-dimethylisoxazol-4-yl)-4-(2-phenylpiperidin-1-yl)quinazolin-2-yl)piperazin-1-yl)-N,N-dimethylethanamine], the Kd is below 500 nM.
Next, `Cn1cc(C(=O)N2CCN(c3nc(NCc4cccc(Cl)c4)c4cc(-c5ccc(=O)n(C)c5)ccc4n3)CC2)cn1` [Example 122, 5-(4-((3-chlorobenzyl)amino)-2-(4-(1-methyl-1H-pyrazole-4-carbonyl)piperazin-1-yl)quinazolin-6-yl)-1-methylpyridin-2(1H)-one]: below 500 nM.
Next, `Cc1noc(C)c1-c1ccc2nc(N3CCc4cnn(C)c4C3)nc(N3CCOC[C@@H]3c3ccccc3)c2c1` [Example 318, (S)-4-(6-(3,5-dimethylisoxazol-4-yl)-2-(1-methyl-1,4,5,7-tetrahydro-6H-pyrazolo[3,4-c]pyridin-6-yl)quinazolin-4-yl)-3-phenylmorpholine]: below 500 nM; `Cc1noc(C)c1-c1ccc2nc(-c3cnn(CC(C)(C)O)c3)nc(N(Cc3cccc(Cl)c3)C3CC3)c2c1` [Example 312, 1-(4-(4-((3-chlorobenzyl)(cyclopropyl)amino)-6-(3,5-dimethylisoxazol-4-yl)quinazolin-2-yl)-1H-pyrazol-1-yl)-2-methylpropan-2-ol]: below 500 nM; `CN(C)C(=O)CN1CCN(c2nc(NCc3cccc(Cl)c3)c3cc(-c4ccc(=O)n(C)c4)ccc3n2)CC1` [Example 110, 2-(4-(4-((3-chlorobenzyl)amino)-6-(1-methyl-6-oxo-1,6-dihydropyridin-3-yl)quinazolin-2-yl)piperazin-1-yl)-N,N-dimethylacetamide]: below 500 nM.
Next, `Cc1noc(C)c1-c1ccc2nc(N3CCN(C(=O)c4ccncc4)CC3)nc(NCc3cccc(Cl)c3)c2c1` [Example 29, (4-(4-((3-chlorobenzyl)amino)-6-(3,5-dimethylisoxazol-4-yl)quinazolin-2-yl)piperazin-1-yl)(pyridin-4-yl)methanone]: below 500 nM; `Cc1noc(C)c1-c1ccc2nc(N3CCN(CC(=O)N(C)C)CC3)nc(NCc3cccc(Cl)c3)c2c1` [Example 52, 2-(4-(4-((3-chlorobenzyl)amino)-6-(3,5-dimethylisoxazol-4-yl)quinazolin-2-yl)piperazin-1-yl)-N,N-dimethylacetamide]: below 500 nM.
Regarding `Cc1noc(C)c1-c1ccc2nc(N3CCN(CC(C)(C)O)CC3)nc(NCc3cccc(Cl)c3)c2c1` [Example 137, 1-(4-(4-((3-chlorobenzyl)amino)-6-(3,5-dimethylisoxazol-4-yl)quinazolin-2-yl)piperazin-1-yl)-2-methylpropan-2-ol], the Kd was 500 to 5000 nM.
Take `Cc1noc(C)c1-c1ccc2nc(N3CCN(CCN(C)C)CC3)nc(NCc3cc(Cl)ccn3)c2c1` [Example 82, N-((4-chloropyridin-2-yl)methyl)-2-(4-(2-(dimethylamino)ethyl)piperazin-1-yl)-6-(3,5-dimethylisoxazol-4-yl)quinazolin-4-amine]: the Kd is below 500 nM.
Next, `COc1ccccc1CNc1nc(N2CCN(CCN(C)C)CC2)nc2ccc(-c3c(C)noc3C)cc12` [Example 72, 2-(4-(2-(dimethylamino)ethyl)piperazin-1-yl)-6-(3,5-dimethylisoxazol-4-yl)-N-(2-methoxybenzyl)quinazolin-4-amine]: below 500 nM.
